Experimental data from patent US11230538B2, “Herbicides” (SYNGENTA PARTICIPATIONS AG, priority 2016, dated 2022).

Experiments:
Assay type in all cases: in vivo
[1] = system: Echinochloa crus-galli (ECHCG); assay: B1 Pre-emergence herbicidal activity; conditions: pre-emergence application, rate 1000 g/ha, evaluated after 13 days
Experimental: (§1) Seeds of a variety of test species were sown in standard soil in pots: Triticum aestivium (TRZAW), Avena fatua (AVEFA), Alopecurus myosuroides (ALOMY), Echinochloa crus-galli (ECHCG), Lolium perenne (LOLPE), Zea Mays (ZEAMX), Abutilon theophrasti (ABUTH), Amaranthus retroflexus (AMARE) and Setaria fabenr (SETFA). After cultivation for one day (pre-emergence) under controlled conditions in a glasshouse (at 24/16° C., day/night; 14 hours light; 65% humidity), the plants were sprayed with an aqueous spray solution derived from the formulation of the technical active ingredient in acetone I water (50:50) solution containing 0.5% Tween 20 (polyoxyethelyene sorbitan monolaurate, CAS RN 9005-64-5). The test plants were then grown in a glasshouse under controlled conditions (at 24/16° C., day/night; 14 hours light; 65% humidity) and watered twice daily. After 13 days, the test was evaluated (5=total damage to plant; 0=no damage to plant).

[2] = system: Echinochloa crus-galli (ECHCG); assay: B2 Post-emergence herbicidal activity; conditions: post-emergence application, rate 1000 g/ha, evaluated after 13 days
Experimental: (§2) Seeds of a variety of test species were sown in standard soil in pots: Triticum aestivium (TRZAW), Avena fatua (AVEFA), Alopecurus myosuroides (ALOMY), Echinochloa crus-galli (ECHCG), Lolium perenne (LOLPE), Zea Mays (ZEAMX), Abutilon theophrasti (ABUTH), Amaranthus retroflexus (AMARE) and Setaria fabenri (SETFA). After 8 days cultivation (post-emergence) under controlled conditions in a glasshouse (at 24/16° C., day/night; 14 hours light; 65% humidity), the plants were sprayed with an aqueous spray solution derived from the formulation of the technical active ingredient in acetone I water (50:50) solution containing 0.5% Tween 20 (polyoxyethelyene sorbitan monolaurate, CAS RN 9005-64-5). The test plants were then grown in a glasshouse under controlled conditions (at 24/16° C., day/night; 14 hours light; 65% humidity) and watered twice daily. After 13 days, the test was evaluated (5=total damage to plant; 0=no damage to plant).

Lolium perenne (LOLPE) = assay: B1 Pre-emergence herbicidal activity; set-up: key to Pre-emergence herbicidal activity, LOLPE (damage score 0-5): 5=total damage to plant; 0=no damage to plant; conditions: pre-emergence application, rate 1000 g/ha, evaluated after 13 days
Experimental: as §1

[3] = system: Triticum aestivium (TRZAW); assay: B1 Pre-emergence herbicidal activity; set-up: key: 5=total damage to plant; 0=no damage to plant; conditions: pre-emergence application, rate 1000 g/ha, evaluated after 13 days
Experimental: as §1

[4] = system: Alopecurus myosuroides (ALOMY); assay: B1 Pre-emergence herbicidal activity; set-up: key: 5=total damage to plant; 0=no damage to plant; conditions: pre-emergence application, rate 1000 g/ha, evaluated after 13 days
Experimental: as §1

Avena fatua (AVEFA) = assay: B1 Pre-emergence herbicidal activity; set-up: key: 5=total damage to plant; 0=no damage to plant; conditions: pre-emergence application, rate 1000 g/ha, evaluated after 13 days
Experimental: as §1

[5] = system: Triticum aestivium (TRZAW); assay: B2 Post-emergence herbicidal activity; set-up: key: 5=total damage to plant; 0=no damage to plant; conditions: post-emergence application, rate 1000 g/ha, evaluated after 13 days
Experimental: as §2

[6] = system: Alopecurus myosuroides (ALOMY); assay: B2 Post-emergence herbicidal activity; set-up: key: 5=total damage to plant; 0=no damage to plant; conditions: post-emergence application, rate 1000 g/ha, evaluated after 13 days
Experimental: as §2

Setaria fabenri (SETFA) = assay: B2 Post-emergence herbicidal activity; set-up: key: 5=total damage to plant; 0=no damage to plant; conditions: post-emergence application, rate 1000 g/ha, evaluated after 13 days
Experimental: as §2

Setaria fabenr (SETFA) = assay: B1 Pre-emergence herbicidal activity; set-up: key to Pre-emergence herbicidal activity, SETFA (damage score 0-5): 5=total damage to plant; 0=no damage to plant; conditions: pre-emergence application, rate 1000 g/ha, evaluated after 13 days
Experimental: as §1

SMILES	Pre-emergence herbicidal activity, ECHCG (damage score 0-5) [1]	Post-emergence herbicidal activity, ECHCG (damage score 0-5) [2]	Pre-emergence herbicidal activity, LOLPE (damage score 0-5) (Lolium perenne (LOLPE))	Pre-emergence herbicidal activity, TRAZW (damage score 0-5) [3]	Pre-emergence herbicidal activity, ALOMY (damage score 0-5) [4]	Pre-emergence herbicidal activity, AVEFA (damage score 0-5) (Avena fatua (AVEFA))	Post-emergence herbicidal activity, TRAZW (damage score 0-5) [5]	Post-emergence herbicidal activity, ALOMY (damage score 0-5) [6]	Post-emergence herbicidal activity, SETFA (damage score 0-5) (Setaria fabenri (SETFA))	Pre-emergence herbicidal activity, SETFA (damage score 0-5) (Setaria fabenr (SETFA))
CC(C)C(=O)N(CC(=O)N(C)C)c1ccc(-c2cncc(F)c2)nc1C(F)(F)F [Compound C107]	3	4	0	0	0	1	0	0	5	5
CCN(CC)CCCN(C(=O)c1ccccc1)c1ccc(-c2cncc(F)c2)nc1C(F)(F)F [Compound C74]	1	2	1	0	1	0	0	0	3	3
CCC(=O)N(c1ccc(-c2cncc(F)c2)nc1C(F)(F)F)C(C)C [Compound C100]	3	4	1	0	0	1	0	0	5	5
CC(C)C(=O)N(COCC(C)(C)C)c1ccc(-c2cncc(F)c2)nc1C(F)(F)F [Compound C89]	3	4	0	0	0	1	0	0	4	4
COCC(=O)N(CC(=O)N(C)C)c1ccc(-c2cncc(F)c2)nc1C(F)(F)F [Compound C84]	2	3	1	0	0	1	0	1	4	5
COCC(=O)N(Cc1ccc(Cl)cc1)c1ccc(-c2cncc(F)c2)nc1C(F)(F)F [Compound C82]	1	1	0	0	0	0	0	0	2	1
CCC(=O)N(CCOC)c1ccc(-c2cncc(F)c2)nc1C(F)(F)F [Compound C96]	3	3	0	0	1	1	0	0	4	5
CC(C)(C)COCN(C(=O)c1ccccc1)c1ccc(-c2cncc(F)c2)nc1C(F)(F)F [Compound C76]	1	3	0	0	0	0	1	0	4	5
CCC(=O)N(CC(C)C)c1ccc(-c2cncc(F)c2)nc1C(F)(F)F [Compound C97]	1	2	0	0	0	0	0	0	3	3
COCC(=O)N(CC(C)C)c1ccc(-c2cncc(F)c2)nc1C(F)(F)F [Compound C79]	3	3	2	0	0	1	0	0	3	5
CCC(=O)N(Cc1ccc(Cl)cc1)c1ccc(-c2cncc(F)c2)nc1C(F)(F)F [Compound C101]	1	2	0	0	0	1	0	0	2	1
CCC(=O)N(Cc1cnc(Cl)s1)c1ccc(-c2cncc(F)c2)nc1C(F)(F)F [Compound C102]	2	2	0	0	0	1	0	0	2	4
COCC(=O)N(COCC(C)(C)C)c1ccc(-c2cncc(F)c2)nc1C(F)(F)F [Compound C81]	3	4	2	0	0	1	0	0	5	5
